The values below come from ChEMBL document CHEMBL4342455, “Benwamycins A-G, Trialkyl-Substituted Benzene Derivatives from a Soil-Derived Streptomyces” (J Nat Prod, 2020).

Activity calls are given as the source filed them. The calls are words filed in the database; no cut-off is given here.

One series concerns T-cell. Briefly: Immunosuppressive activity in anti-CD3/anti-CD28-stimulated human T cells assessed as reduction in cell viability after 96 hrs by CFSE dye based flow cytometric analysis. The class given is functional. On the technique in general: In flow cytometry, cells or beads pass a laser one at a time.
Series [1] relates to 3T3-L1. Briefly: Induction of glucose uptake in mature mouse 3T3L1 adipocytes assessed as [3H]2-deoxy-D-glucose uptake at 25 uM preincubated for 24 hrs followed by [3H]2-deoxy-D-glucose additon and measured after 10 mins by scintillation counting method relative to control. The class given is functional.
Series [2] is described as follows: Cytotoxicity against human naive T cells assessed as reduction in cell viability after 96 hrs by flow cytometric analysis. The class given is cell-based.
The subject of series [3] is 3T3-L1. Briefly: Induction of glucose uptake in mature mouse 3T3L1 adipocytes assessed as [3H]2-deoxy-D-glucose uptake at 10 uM preincubated for 24 hrs followed by [3H]2-deoxy-D-glucose additon and measured after 10 mins by scintillation counting method relative to control. The class given is functional.

Broadly, the IC50 is the point on the concentration scale where inhibition reaches its midpoint. Usually CC50 stands for the concentration that lowers cell viability or growth by half.

With `CCC(=O)O[C@@H]([C@H](C)C(C)=O)[C@@H](C)c1ccc(CO)cc1/C=C/CO`, the outcome in the series with T-cell and in the series on 3T3-L1 [1] was inactive.
In the case of `CC(=O)[C@@H](C)[C@H](O)[C@@H](C)c1ccc(C)cc1/C=C/C(=O)O`, the outcome with T-cell and in the series with 3T3-L1 [1] was inactive.
For the molecule `CCC(=O)O[C@@H]([C@H](C)C(C)=O)[C@@H](C)c1ccc(C)cc1/C=C/CO`, the result in the series with T-cell and in the series on 3T3-L1 [1] was inactive.
Regarding `CCC1=CC(=O)[C@@H](C)[C@@H]([C@@H](C)c2ccc(CO)cc2/C=C/CO)O1`, the outcome in the series with T-cell and in the series on 3T3-L1 [1] was inactive.
Take `C[C@@H]([C@H](O)[C@@H](C)c1ccc(CO)cc1/C=C/CO)[C@H](C)O`: the result in the series with T-cell and in the series on 3T3-L1 [1] was inactive.
On to `CC(=O)OCc1ccc([C@H](C)[C@@H](O)[C@H](C)C(C)=O)c(/C=C/CO)c1`, for which the result in the series on T-cell was inactive. For the same molecule, the Activity in the series with 3T3-L1 [1] is 28.4%.
In the case of `CCC1=CC(=O)[C@@H](C)[C@@H]([C@@H](C)c2ccc(C)cc2/C=C/CO)O1`, the IC50 in the series on T-cell came out at 12.5 µM. In addition, the CC50 at 96 h in series [2] was above 80 µM. Also, the Activity in the series on 3T3-L1 [1] is 21.1%.
The matching figures for `Cc1ccc([C@H](C)[C@@H](O)[C@H](C)[C@H](C)O)c(/C=C/CO)c1`: 14.3 µM, above 80 µM and “inactive”.
Consider `CC(=O)[C@@H](C)[C@H](O)[C@@H](C)c1ccc(CO)cc1/C=C/CO`, for which the outcome in the series on T-cell and with 3T3-L1 [1] was inactive.
On to `CC(=O)[C@@H](C)[C@H](O)[C@@H](C)c1ccc(C)cc1/C=C/CO`, for which the result in the series with T-cell and with 3T3-L1 [1] was inactive.
`COc1ccc2cc3[n+](cc2c1OC)CCc1cc2c(cc1-3)OCO2` [BERBERINE]: the Activity with 3T3-L1 [3] stood at 25.5%.
